Test results as given in ChEMBL document CHEMBL4184253, “Design, synthesis, and structure-activity relationships of new benzofuro[3,2-b]pyridin-7-ols as DNA topoisomerase II inhibitors” (Bioorg Med Chem Lett, 2018).
Where a name gives a salt, the structure may show the parent alone. Calls of active or inactive are those of the source. The rule behind the calls is not given here.

Experiments:
[1] = system: HCT-15; assay: Antiproliferative activity against human HCT15 cells incubated for 72 hrs by CCK8 assay; format: functional, cell-based; details: HCT-15, 72 h
[2] = target: T1, DNA topoisomerase 1 (Homo sapiens) (UniProt P11387); assay: Inhibition of human recombinant topoisomerase-1 assessed as inhibition of relaxation of supercoiled pBR322 plasmid DNA at 20 uM measured after 1 hr by ethidium bromide staining based agarose gel electrophoresis relative to control
T1 sequence (whole entry): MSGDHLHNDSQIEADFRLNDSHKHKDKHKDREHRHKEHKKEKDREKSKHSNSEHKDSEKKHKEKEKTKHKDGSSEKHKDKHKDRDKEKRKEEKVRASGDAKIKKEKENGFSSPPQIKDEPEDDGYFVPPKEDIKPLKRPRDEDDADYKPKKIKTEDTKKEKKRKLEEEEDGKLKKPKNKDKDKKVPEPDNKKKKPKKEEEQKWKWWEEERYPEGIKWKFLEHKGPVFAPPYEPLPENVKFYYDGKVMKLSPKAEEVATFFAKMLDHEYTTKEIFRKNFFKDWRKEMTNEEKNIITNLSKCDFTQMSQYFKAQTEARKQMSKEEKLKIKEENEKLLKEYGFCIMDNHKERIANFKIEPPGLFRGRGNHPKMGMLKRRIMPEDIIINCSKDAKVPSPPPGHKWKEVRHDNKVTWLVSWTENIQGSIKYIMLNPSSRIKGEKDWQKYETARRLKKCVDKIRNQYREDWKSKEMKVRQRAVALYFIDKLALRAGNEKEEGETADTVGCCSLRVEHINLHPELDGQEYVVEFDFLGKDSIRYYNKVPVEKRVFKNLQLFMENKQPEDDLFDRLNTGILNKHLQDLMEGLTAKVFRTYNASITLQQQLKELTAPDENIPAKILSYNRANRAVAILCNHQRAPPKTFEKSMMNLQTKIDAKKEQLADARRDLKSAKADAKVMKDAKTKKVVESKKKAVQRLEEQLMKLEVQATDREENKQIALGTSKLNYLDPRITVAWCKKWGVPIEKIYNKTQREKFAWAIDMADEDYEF

[3] = system: T47D; assay: Antiproliferative activity against human T47D cells incubated for 72 hrs by CCK8 assay; format: functional, cell-based
[4] = target: DNA topoisomerase 2-alpha (Homo sapiens) (UniProt P11388); assay: Inhibition of human recombinant topoisomerase-2alpha assessed as inhibition of relaxation of supercoiled pBR322 plasmid DNA at 100 uM measured after 1 hr by ethidium bromide staining based agarose gel electrophoresis relative to control
DNA topoisomerase 2-alpha (Homo sapiens), sequence (P11388 whole entry): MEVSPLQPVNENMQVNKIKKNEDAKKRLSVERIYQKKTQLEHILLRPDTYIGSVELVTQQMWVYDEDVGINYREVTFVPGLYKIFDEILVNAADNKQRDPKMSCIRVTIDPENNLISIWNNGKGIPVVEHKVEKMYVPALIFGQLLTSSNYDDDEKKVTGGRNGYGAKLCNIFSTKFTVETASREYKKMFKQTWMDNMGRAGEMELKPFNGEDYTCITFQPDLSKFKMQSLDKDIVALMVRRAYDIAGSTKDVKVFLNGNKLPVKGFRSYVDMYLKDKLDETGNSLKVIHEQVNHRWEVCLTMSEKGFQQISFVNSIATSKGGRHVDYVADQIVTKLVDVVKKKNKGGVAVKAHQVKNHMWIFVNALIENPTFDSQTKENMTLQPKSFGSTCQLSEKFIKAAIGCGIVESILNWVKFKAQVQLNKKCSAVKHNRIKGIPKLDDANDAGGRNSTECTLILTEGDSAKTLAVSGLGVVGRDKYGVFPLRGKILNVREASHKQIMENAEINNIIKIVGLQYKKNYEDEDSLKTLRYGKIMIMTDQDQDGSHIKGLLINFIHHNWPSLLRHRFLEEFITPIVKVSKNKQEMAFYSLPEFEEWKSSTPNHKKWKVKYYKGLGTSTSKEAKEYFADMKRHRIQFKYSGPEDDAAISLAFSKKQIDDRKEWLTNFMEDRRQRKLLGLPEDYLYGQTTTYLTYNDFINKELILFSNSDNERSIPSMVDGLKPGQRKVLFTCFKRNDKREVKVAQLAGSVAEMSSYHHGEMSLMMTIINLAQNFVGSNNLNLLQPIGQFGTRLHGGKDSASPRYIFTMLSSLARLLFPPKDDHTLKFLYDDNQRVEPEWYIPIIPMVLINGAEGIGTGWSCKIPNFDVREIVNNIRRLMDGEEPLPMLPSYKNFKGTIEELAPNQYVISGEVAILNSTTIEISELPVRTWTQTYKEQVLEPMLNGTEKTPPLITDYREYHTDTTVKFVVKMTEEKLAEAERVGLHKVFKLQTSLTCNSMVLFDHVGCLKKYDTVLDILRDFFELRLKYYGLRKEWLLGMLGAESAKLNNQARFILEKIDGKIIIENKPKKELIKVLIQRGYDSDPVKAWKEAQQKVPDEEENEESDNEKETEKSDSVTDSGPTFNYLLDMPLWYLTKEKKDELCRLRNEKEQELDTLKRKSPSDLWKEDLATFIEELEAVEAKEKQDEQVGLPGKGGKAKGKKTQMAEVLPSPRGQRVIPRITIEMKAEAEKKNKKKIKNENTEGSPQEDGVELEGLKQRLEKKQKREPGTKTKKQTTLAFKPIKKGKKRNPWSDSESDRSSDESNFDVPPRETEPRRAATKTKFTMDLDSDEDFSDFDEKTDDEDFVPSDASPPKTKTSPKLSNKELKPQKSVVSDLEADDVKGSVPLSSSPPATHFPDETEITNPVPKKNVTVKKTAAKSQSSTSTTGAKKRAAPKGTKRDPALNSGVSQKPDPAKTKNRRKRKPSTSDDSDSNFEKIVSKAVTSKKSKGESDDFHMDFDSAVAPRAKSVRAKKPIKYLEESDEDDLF

[5] = target: T1, DNA topoisomerase 1 (Homo sapiens); assay: Inhibition of human recombinant topoisomerase-1 assessed as inhibition of relaxation of supercoiled pBR322 plasmid DNA at 100 uM measured after 1 hr by ethidium bromide staining based agarose gel electrophoresis relative to control
[6] = target: DNA topoisomerase 2-alpha (Homo sapiens) (UniProt P11388); assay: Inhibition of human recombinant topoisomerase-2alpha assessed as inhibition of relaxation of supercoiled pBR322 plasmid DNA at 100 uM measured after 1 hr by ethidium bromide staining based agarose gel electrophoresis relative to control etoposide
[7] = target: DNA topoisomerase 2-alpha (Homo sapiens) (UniProt P11388); assay: Inhibition of human recombinant topoisomerase-2alpha assessed as inhibition of relaxation of supercoiled pBR322 plasmid DNA at 20 uM measured after 1 hr by ethidium bromide staining based agarose gel electrophoresis relative to control
[8] = target: DNA topoisomerase 2-alpha (Homo sapiens) (UniProt P11388); assay: Inhibition of human recombinant topoisomerase-2alpha assessed as inhibition of relaxation of supercoiled pBR322 plasmid DNA at 20 uM measured after 1 hr by ethidium bromide staining based agarose gel electrophoresis relative to control etoposide
[9] = system: HeLa; assay: Antiproliferative activity against human HeLa cells incubated for 72 hrs by CCK8 assay; format: functional, cell-based

IC50 [1] | inhibition [2] | IC50 [3] | inhibition [4] | inhibition [5] | Ratio [6] | inhibition [7] | Ratio [8] | IC50 [9] | inhibition [6] | Compound
9.34 µM | 0% | 1.97 µM | 100% | 39.9% | 1.62 | 70.8% | 1.42 | 3.62 µM |  | Oc1ccc(-c2cc(-c3ccccc3O)nc3c2oc2cc(O)ccc23)cc1
> 50 µM | 0% | > 50 µM | 0.4% | 30.3% |  |  |  | > 50 µM | inactive | Oc1ccc(-c2cc(-c3ccccc3)nc3c2oc2cc(O)ccc23)cc1
3.73 µM | 38.1% | 0.19 µM | 66.1% | 66.3% | 1.07 | 55.1% | 1.11 | 2.16 µM |  | Oc1ccc(-c2cc(-c3cccc(O)c3)c3oc4cc(O)ccc4c3n2)cc1
23.9 µM | 60.9% | 5.25 µM | 58.4% | 71.7% | 0.94 | 45.1% | 0.91 | 29.1 µM |  | Oc1ccc(-c2cc(-c3cccc(O)c3)nc3c2oc2cc(O)ccc23)cc1
1.6 µM |  | 0.71 µM | 83.1% | 18.2% | 1.08 | 52.6% | 1.33 | 4.11 µM |  | Oc1ccc2c(c1)oc1c(-c3ccccc3)cc(-c3ccccc3O)nc12
1.26 µM |  | 0.62 µM | 87.3% | 3.3% | 1.12 | 29% | 0.73 | 2.86 µM |  | Oc1ccc(-c2cc(-c3ccccc3O)c3oc4cc(O)ccc4c3n2)cc1
0.51 µM |  |  |  |  |  |  |  | 1.5 µM |  | COc1cccc2c1C(=O)c1c(O)c3c(c(O)c1C2=O)C[C@@](O)(C(=O)CO)C[C@@H]3O[C@H]1C[C@H](N)[C@H](O)[C@H](C)O1 [DOXORUBICIN HYDROCHLORIDE]
> 50 µM | 0% | 5.3 µM | 78.4% | 43.9% | 1.02 | 72.2% | 1.83 | > 50 µM |  | Oc1ccc(-c2cc(-c3ccccc3)c3oc4cc(O)ccc4c3n2)cc1
> 50 µM | 0% | 1.03 µM | 46% | 30.1% | 0.6 | 38% | 0.96 | > 50 µM |  | Oc1ccc2c(c1)oc1c(-c3ccccc3O)cc(-c3ccccc3O)nc12
1.22 µM |  | 0.59 µM | 100% | 22.4% | 1.62 | 74.1% | 1.49 | 0.86 µM |  | Oc1cccc(-c2cc(-c3cccc(O)c3)c3oc4cc(O)ccc4c3n2)c1
> 50 µM | 0% | > 50 µM | 18.3% | 30.8% |  |  |  | > 50 µM |  | Oc1ccc2c(c1)oc1c(-c3ccccc3)cc(-c3ccccc3)nc12
4.21 µM | 18.6% | 0.17 µM | 71% | 33.8% | 1.15 | 65.9% | 1.33 | 3.32 µM |  | Oc1ccc(-c2cc(-c3ccc(O)cc3)c3oc4cc(O)ccc4c3n2)cc1
6.96 µM |  | 1.26 µM | 99.1% | 25.6% | 1.6 | 76% | 1.53 | 3.39 µM |  | Oc1cccc(-c2cc(-c3ccccc3O)nc3c2oc2cc(O)ccc23)c1
5.74 µM |  | 0.74 µM | 52.5% | 14.2% | 0.69 | 19.1% | 0.48 | 6.93 µM |  | Oc1ccc2c(c1)oc1c(-c3ccccc3O)cc(-c3ccccc3)nc12
4.11 µM |  | 0.34 µM | 98% | 27.4% | 1.58 | 41.9% | 0.84 | 3.27 µM |  | Oc1cccc(-c2cc(-c3ccccc3)nc3c2oc2cc(O)ccc23)c1
> 50 µM |  | 2.79 µM | 46.3% | 15.9% | 0.6 | 32.5% | 0.82 | > 50 µM |  | Oc1cccc(-c2cc(-c3ccccc3)c3oc4cc(O)ccc4c3n2)c1
2.5 µM | 0% | 0.64 µM | 63% | 33.9% | 0.82 | 12% | 0.31 | 3.63 µM |  | Oc1cccc(-c2cc(-c3ccccc3O)c3oc4cc(O)ccc4c3n2)c1
